22 compounds from patent US4299839A, “Novel pesticides and pesticidal compositions cyclopropanecarboxylates and pesticidal method” (priority 1979, dated 1981) can be followed below.

Like-named read-outs stand apart in the source and are kept apart here.

Series [1] is described as follows: Fish Toxicity Test. The format is in vivo. The following applies: guppy, water; rank; 50% of female guppies killed during 48 hours, 20° C.; [Mixture] = cis/trans 50/50; read-out: TLm (medium tolerance limit). As for the experimental part: (§1) The mixture was stirred well to prepare a test water. Ten female guppies from 3 to 4 months of age were released into the test water and maintained at 20° C. The concentration of the test compound at which 50% of the guppies were killed during the ensuring 48 hours was determined. [This concentration is referred to as TLm (medium tolerance limit, ppm)].
(§2) A rank corresponds to TLm of not less than 10 ppm.
(§3) B rank corresponds to TLm of 0.5-10 ppm.
(§4) C rank corresponds to TLm of not more than 0.5 ppm.

Series [2] deals with housefly (Musca domestica). Briefly: Mortality test against houseflies by topical application. The format is in vivo. As for the experimental part: Each test compound was accurately weighed and a 1% solution and an 0.1% solution of the sample in acetone were prepared. A 1 μl portion of either of the above solutions was micropipetted onto the thoracic dorsal part of each female adult housefly (Musca domestica) under ether anaesthesia and the fly was released in a high-walled dish together with feed. The dish was covered with a metal-wire net and maintained at 25° C. After 24 hours, the test flies were inspected for deaths and the mortality (%) was calculated. Thirty test flies were used per concentration group.

Series [3] has as its system guppies. The series can be described thus: Fish Toxicity Test. Type of series: in vivo. The settings on record: rank; 50% of female guppies killed during 48 hours, 20° C.; [Mixture] = cis/trans 50/50. As for the experimental part:
as §1, §2, §3, §4

The subject of series [4] is houseflies. Briefly: Utility Example 3: settling mist method, mortality test against houseflies, oil preparations of Formulation Example 3. The format is in vivo. The settings on record: oil preparation of Formulation Example 3 (0.1 part compound + 0.08 part permethrin per 100 parts), 24 hours; cis/trans 50/50. As for the experimental part:
To 0.1 part of each of Compounds (1) to (38) was added 0.08 part of permethrin, followed by the addition of a sufficient amount of kerosene to make 100 parts. The mixture was stirred to obtain an oil preparation of each compound.
By the settling mist method, a mortality test against houseflies was carried out using the oil preparations obtained in Formulation Example 3 from Compounds (1), (5), (7), (9), (11), (12), (15), (17) and (28) [Each compound is a mixture of cis- and trans-isomer in a ratio 50/50]. After 24 hours, the flies were examined for deaths. The mortality (%) was not less than 90% for each of Compounds (1), (5), (7), (9), (11), (12), (15), (17) and (28).

Series [5] is described as follows: Light Stability Test. The following applies: ultraviolet light, wavelength=3600 A, 31°-35° C., on glass plate. The format is physicochemical. Here is the method: Into 2.0 ml of acetone were dissolved 80 mg of each test compound. A 5 μl portion of the solution was taken and spread on a glass plate (Micro Standard Cover Glass, 18 m/m No. 1, 200 pcs, Matsunami Glass Ind., Ltd.) and the acetone was evaporated. The specimen was exposed to ultraviolet light from a fluorescent lamp (Tokyo Shibaura Electric Co., Ltd., FL20BL, glow-type, 100 V, 24.5 W, wavelength=3600 A) which was fixed just above the specimen at a distance of 11 cm at a temperature of 31°-35° C. for a predetermined exposure time. The test liquid was washed away with 1.0 ml of methanol containing 0.04% of dioctyl phthalate as an internal reference and high-speed liquid chromatography was carried out on the washings to determine the residual amount of the test compound.

Setting [6] is: 1μg/fly, female adult, 24 hours, 25° C., [Mixture] = cis/trans 50/50, read-out: Mortality (%).
Setting [7] is: 10μg/fly, female adult, 24 hours, 25° C., [Mixture] = cis/trans 50/50, read-out: Mortality (%).

`CC1(C)C(C=C(Cl)Cl)C1C(=O)OCc1cccc(Oc2ccccc2)c1` (racemic) [Permethrin, 3-phenoxybenzyl (+)-cis,trans-2,2-dimethyl-3-(2,2-dichlorovinyl)-cyclopropanecarboxylate, reference compound]: in series [1], the LC50 at 48 h was no more than 0.5 µg/mL.

As for `CC1(C)[C@H](C(=O)OCc2cccc(Oc3ccccc3)c2)[C@@H]1CC(Cl)(Cl)Cl` (relative stereo) [Compound (1) [Cis-isomer], 3-Phenoxybenzyl 2,2-dimethyl-3-(2,2,2-trichloroethyl)cyclopropanecarboxylate], in series [2] (24 h), the mortality at 1 µg/fly was found to be 96.7% and the mortality at 10 µg/fly was found to be 100%. The LC50 at 48 h in series [1] was no less than 10 µg/mL.

Regarding `C#CC(OC(=O)[C@@H]1[C@@H](CC(Cl)(Cl)Cl)C1(C)C)c1cccc(Oc2ccccc2)c1` (relative stereo) [Compound (11) [Trans-isomer], 3-Phenoxy-α-ethynylbenzyl 2,2-dimethyl-3-(2,2,2-trichloroethyl)cyclopropanecarboxylate], the “TLm (medium tolerance limit)” value in series [3] is given as “A (A rank corresponds to TLm of not less than 10 ppm)”.

As to `CC1(C)C(CC(Cl)(Cl)Cl)C1C(=O)OCc1cccc(Oc2ccccc2)c1` (stereo not shown) [(1), 3-Phenoxybenzyl 2,2-dimethyl-3-(2,2,2-trichloroethyl)cyclopropanecarboxylate], the “Mortality (%)” value in series [4] is reported as “not less than 90%”.

As for `CC(Cl)(Cl)CC1C(C(=O)OCc2cccc(Oc3ccccc3)c2)C1(C)C` (stereo not shown) [(5), 3-Phenoxybenzyl 2,2-dimethyl-3-(2,2-dichloropropyl)cyclopropanecarboxylate], in series [4], the “Mortality (%)” value is listed as “not less than 90%”.

Take `C=CCC1=C(C)C(OC(=O)C2C(C=C(C)C)C2(C)C)CC1=O` (stereo not shown) [Allethrin, reference compound]: in series [2] (24 h), the mortality at 1 µg/fly was 33.3% and the mortality at 10 µg/fly came out at 100%. For the same compound, the “Residue (%)” value in series [5] (exposure time 3.5 hrs.) stood at 14%. In addition, the “Residue (%)” value in series [5] (exposure time 3 days) turned out to be 0%. In addition, in series [1], the LC50 at 48 h is no more than 0.5 µg/mL.

With `CC1(C)C(CC(Cl)(Cl)Cl)C1C(=O)OCc1cccc(Oc2ccc(Cl)cc2)c1` (stereo not shown) [Compound (2) [Mixture], 3-(4-Chlorophenoxy)benzyl 2,2-dimethyl-3-(2,2,2-trichloroethyl)cyclopropanecarboxylate], in series [2] (24 h), the mortality at 1 µg/fly is 0% and the mortality at 10 µg/fly is 86.7%. The LC50 at 48 h in series [1] is no less than 10 µg/mL.

In series [2] (24 h), `CC(Cl)(Cl)CC1C(C(=O)OCc2cccc(Oc3ccccc3)c2)C1(C)C` (stereo not shown) [Compound (5) [Mixture], 3-Phenoxybenzyl 2,2-dimethyl-3-(2,2-dichloropropyl)cyclopropanecarboxylate] had a mortality at 1 µg/fly of 100% and a mortality at 10 µg/fly of 100%.

Take `CC1(C)[C@H](CC(Cl)(Cl)Cl)[C@H]1C(=O)OC(C#N)c1cccc(Oc2ccccc2)c1` (stereo partly drawn) [Compound (7) [Trans-isomer], 3-Phenoxy-α-cyanobenzyl 2,2-dimethyl-3-(2,2,2-trichloroethyl)cyclopropanecarboxylate]: the “TLm (medium tolerance limit)” value in series [3] is listed as “B (B rank corresponds to TLm of 0.5-10 ppm)”.

In series [2] (24 h), `CC(Cl)(Cl)CC1C(C(=O)OC(C#N)c2cccc(Oc3ccccc3)c2)C1(C)C` (stereo not drawn) [Compound (9) [Mixture], 3-Phenoxy-α-cyanobenzyl 2,2-dimethyl-3-(2,2-dichloropropyl)cyclopropanecarboxylate] yielded a mortality at 1 µg/fly of 100% and a mortality at 10 µg/fly of 100%.

On to `C#CC(OC(=O)C1C(CC(Br)(Br)Br)C1(C)C)c1cccc(Oc2ccccc2)c1` (stereo not drawn) [Compound (12) [Mixture], 3-Phenoxy-α-ethynylbenzyl 2,2-dimethyl-3-(2,2,2-tribromoethyl)cyclopropanecarboxylate], for which the LC50 at 48 h in series [1] is no less than 10 µg/mL.

Turning to `C#CC(OC(=O)[C@@H]1[C@H](CC(C)(Cl)Cl)C1(C)C)c1cccc(Oc2ccccc2)c1` (stereo partly drawn) [Compound (13) [Cis-isomer], 3-Phenoxy-α-ethynylbenzyl 2,2-dimethyl-3-(2,2-dichloropropyl)cyclopropanecarboxylate], the “TLm (medium tolerance limit)” value in series [3] is reported as “A (A rank corresponds to TLm of not less than 10 ppm)”.

With `CC1(C)C(CC(Cl)(Cl)Cl)C1C(=O)OC(C#N)c1cccc(Oc2ccc(Cl)cc2)c1` (stereo not drawn) [Compound (15) [Mixture], 3-(4-Chlorophenoxy)-α-cyanobenzyl 2,2-dimethyl-3-(2,2,2-trichloroethyl)cyclopropanecarboxylate], in series [2] (24 h), the mortality at 1 µg/fly was 86.7% and the mortality at 10 µg/fly amounted to 100%. The LC50 at 48 h in series [1] was no less than 10 µg/mL.

In series [2] (24 h), `C#CC(OC(=O)C1C(CC(Cl)(Cl)Cl)C1(C)C)c1cccc(Oc2ccc(Cl)cc2)c1` (stereo not drawn) [Compound (21) [Mixture], 3-(4-Chlorophenoxy)-α-ethynylbenzyl 2,2-dimethyl-3-(2,2,2-trichloroethyl)cyclopropanecarboxylate] registered a mortality at 1 µg/fly of 60% and a mortality at 10 µg/fly of 93.3%. For the same compound, the LC50 at 48 h in series [1] is no less than 10 µg/mL.

In series [2] (24 h), `CC1(C)C(CC(Cl)(Cl)Cl)C1C(=O)OCc1coc(Cc2ccccc2)c1` (stereo not shown) [Compound (28) [Mixture], 5-Benzyl-3-furylmethyl 2,2-dimethyl-3-(2,2,2-trichloroethyl)cyclopropanecarboxylate] gave a mortality at 1 µg/fly of 86.7% and a mortality at 10 µg/fly of 100%. Besides, in series [1], the LC50 at 48 h was no less than 10 µg/mL.

With `CC1(C)C(CC(Cl)(Cl)Cl)C1C(=O)OCc1cccc(OC=C(Cl)Cl)c1` (stereo not shown) [Compound (33) [Mixture], 3-(2,2-dichlorovinyloxy)benzyl 2,2-dimethyl-3-(2,2,2-trichloroethyl)cyclopropanecarboxylate], the mortality at 1 µg/fly in series [2] (setting [6]) is 6.7%. In addition, in series [2] (setting [7]), the mortality at 10 µg/fly turned out to be 33.3%. The LC50 at 48 h in series [1] is no less than 10 µg/mL.

`CC1(C)C(CC(Cl)(Cl)Cl)C1C(=O)OC(C#N)c1cccc(OC=C(Cl)Cl)c1` (stereo not drawn) [Compound (34) [Mixture], 3-(2,2-dichlorovinyloxy)-α-cyanobenzyl 2,2-dimethyl-3-(2,2,2-trichloroethyl)cyclopropanecarboxylate]: the mortality at 1 µg/fly in series [2] (setting [6]) worked out at 56.7%. The mortality at 10 µg/fly in series [2] (setting [7]) came to 100%. The “Residue (%)” value in series [5] (exposure time 3.5 hrs.) amounted to 100%; in series [5] (exposure time 3 days), 88%; in series [5] (exposure time 5 days), 44%. In addition, the LC50 at 48 h in series [1] is no less than 10 µg/mL.

In the case of `CC1(C)C(CC(Cl)(Cl)Cl)C1C(=O)OCN1C(=O)C2=C(CCCC2)C1=O` (stereo not shown) [Compound (37) [Mixture], 3,4,5,6-Tetrahydrophthalimidomethyl 2,2-dimethyl-3-(2,2,2-trichloroethyl)cyclopropane carboxylate], in series [2] (24 h), the mortality at 1 µg/fly came out at 40% and the mortality at 10 µg/fly is 56.7%. Further, the LC50 at 48 h in series [1] fell in the range of 0.5 to 10 µg/mL.

Consider `C=CCC1=C(C)C(OC(=O)C2C(CC(Cl)(Cl)Cl)C2(C)C)CC1=O` (stereo not shown) [Compound (38) [Mixture], Allethronyl 2,2-dimethyl-3-(2,2,2-trichloroethyl)cyclopropanecarboxylate], for which, in series [2] (24 h), the mortality at 1 µg/fly is 6.7% and the mortality at 10 µg/fly was 100%. Moreover, the LC50 at 48 h in series [1] is 0.5 to 10 µg/mL.

For `CC1(C)C(C=C(Cl)Cl)C1C(=O)OC(C#N)c1cccc(Oc2ccccc2)c1` (stereo not drawn) [Cypermethrin, 3-phenoxy-α-cyanobenzyl 2,2-dimethyl-3-(2,2-dichlorovinyl)cyclopropanecarboxylate, reference compound], the LC50 at 48 h in series [1] is no more than 0.5 µg/mL.

As to `CC(C)C(C(=O)OC(C#N)c1cccc(Oc2ccccc2)c1)c1ccc(Cl)cc1` (stereo not drawn) [Fenvalerate, 3-phenoxy-α-cyanobenzyl α-(4-chlorophenyl)isovalerate, reference compound], in series [1], the LC50 at 48 h is no more than 0.5 µg/mL.

For the compound `CC(C)=CC1C(C(=O)OCc2coc(Cc3ccccc3)c2)C1(C)C` (stereo not shown) [Resmethrin, 5-benzyl-3-furylmethyl chrysanthemate, reference compound], in series [1], the LC50 at 48 h is no more than 0.5 µg/mL.
